{"source": "patent US20240041959A1", "about": "“NOVEL MODIFIED REOVIRUS AND USE THEREOF” (priority 2020, published 2024)", "key": {"normal cell line HS27": {"system": "normal cell line HS27", "assay": "WST cell viability in normal cell line (Example 3)", "format": "cell-based, human", "details": "HS27, 3 days, FIG. 1A", "experimental": "(§1) The cell lines used in this example are as follows: normal cell line HS27, and paclitaxel-resistant cancer cell lines Skmel28, A375, and B16F10. Each cell line was cultured in DMEM medium containing 10% fetal bovine serum and seeded at a density of 3,000 cells/well in a 96-well plate, followed by incubation at 37° C. and 5% CO2 for 24 hours. RP116 was serially diluted at concentrations ranging from 0.008 to 1,000 MOI (Multiplicity of Infection) and treated to the prepared cells, and further incubated for three days at 37° C. and 5% CO2. The number of surviving cells was measured using a WST kit (DoGen, Seoul, South Korea, Cat No: EZ-3000) according to the manufacturer's instructions."}, "[1]": {"system": "paclitaxel-resistant cancer cell lines Skmel28, A375, and B16F10", "assay": "WST cell viability in paclitaxel-resistant cancer cell lines (Example 3)", "format": "cell-based", "details": "even at high concentrations of 100 nM or more, FIG. 1B", "experimental": "as §1, with “RP116 was serially diluted at concentrations ranging from 0.008 to 1,000 MOI (Multiplicity of Infection) and treated to the prepared cells, and further incubated for three days at 37° C. and 5% CO2.” left out"}}}
{"smiles": "CC(=O)O[C@H]1C(=O)[C@@]2(C)[C@H]([C@H](OC(=O)c3ccccc3)[C@]3(O)C[C@H](OC(=O)[C@H](O)[C@@H](NC(=O)c4ccccc4)c4ccccc4)C(C)=C1C3(C)C)[C@]1(OC(C)=O)CO[C@@H]1C[C@@H]2O", "note": "[paclitaxel]", "values": [{"measurement": "cell viability of normal cell line vs control group", "setting": "normal cell line HS27", "value": "cell viability decreased in a concentration-dependent manner"}, {"measurement": "cell viability of paclitaxel-resistant cancer cells vs control group", "setting": "[1]", "value": "no significant difference in cell viability compared to the control group"}]}
